Reference: PMC4315428 (PLoS ONE, 2015)

Key:
L-type Ca^2+ channel = type: cell-based, rat (Sprague-Dawley); settings: 10 μM
T-type Ca^2+ channel = type: cell-based, rat (Sprague-Dawley); settings: 10 μM
[1] = system: tetrodotoxin-sensitive (TTX-S) sodium channels; settings: read-out: IC50 value, TTX-S voltage-gated sodium channels; cited from earlier work

Hainantoxin-IV [HNTX-IV]
effect on Ca^2+ currents (L-type) (L-type Ca^2+ channel): neither native HNTX-IV (Fig. 8A, 8B) nor rHNTX-IV (Fig. 8C, 8D) could cause obvious changes | effect on Ca^2+ currents (T-type) (T-type Ca^2+ channel): neither native HNTX-IV (Fig. 8A, 8B) nor rHNTX-IV (Fig. 8C, 8D) could cause obvious changes | IC50 [1]: 0.034 µM
